Active and inactive are the calls of the source. No cut-off for these calls is given here.
Experiments:
Format in all cases: cell-based
[1] = molecular target: T1, Sodium-dependent dopamine transporter (Homo sapiens, UniProt Q01959); assay: Displacement of [3H]WIN-35,428 from human DAT expressed in N2A cells after 15 mins by photoaffinity labeling
[2] = molecular target: T1, Sodium-dependent dopamine transporter; assay: Binding affinity to human His6-DAT expressed in LLCPK1 cells at 10 nM after 1.5 hrs measured 2 mins post-irradiation by SDS-PAGE/autoradiography; conditions: LLC-PK1, tested as the 125I-labelled form
[3] = molecular target: T2, Neuronal acetylcholine receptor; alpha4/beta2 (Homo sapiens) (UniProt P17787+P43681); assay: Binding affinity to human alpha4beta2 nAChR in HEK cells at 0.21 nM after 5 hrs by gamma counting in the presence of (+/-)-bupropion; conditions: HEK293, tested as the 125I-labelled form
[4] = molecular target: T2, Neuronal acetylcholine receptor; alpha4/beta2 (Homo sapiens); assay: Binding affinity to human alpha4beta2 nAChR in HEK cells at 78 nM after 2 hrs measured 10 mins post-irradiation by autoradiography in the presence of 160 uM (+/-)-bupropion; conditions: HEK293, tested as the 125I-labelled form
[5] = molecular target: T1, Sodium-dependent dopamine transporter; assay: Binding affinity to human His6-DAT expressed in LLCPK1 cells at 10 nM after 1.5 hrs measured 2 mins post-irradiation by autoradiography in the presence of (+/-)-bupropion; conditions: LLC-PK1, tested as the 125I-labelled form
[6] = molecular target: T1, Sodium-dependent dopamine transporter; assay: Binding affinity to human His6-DAT expressed in LLCPK1 cells at 10 nM after 1.5 hrs measured 2 mins post-irradiation by autoradiography in the presence of (+/-)-cocaine; conditions: LLC-PK1, tested as the 125I-labelled form

T1 sequence (Q01959 whole entry): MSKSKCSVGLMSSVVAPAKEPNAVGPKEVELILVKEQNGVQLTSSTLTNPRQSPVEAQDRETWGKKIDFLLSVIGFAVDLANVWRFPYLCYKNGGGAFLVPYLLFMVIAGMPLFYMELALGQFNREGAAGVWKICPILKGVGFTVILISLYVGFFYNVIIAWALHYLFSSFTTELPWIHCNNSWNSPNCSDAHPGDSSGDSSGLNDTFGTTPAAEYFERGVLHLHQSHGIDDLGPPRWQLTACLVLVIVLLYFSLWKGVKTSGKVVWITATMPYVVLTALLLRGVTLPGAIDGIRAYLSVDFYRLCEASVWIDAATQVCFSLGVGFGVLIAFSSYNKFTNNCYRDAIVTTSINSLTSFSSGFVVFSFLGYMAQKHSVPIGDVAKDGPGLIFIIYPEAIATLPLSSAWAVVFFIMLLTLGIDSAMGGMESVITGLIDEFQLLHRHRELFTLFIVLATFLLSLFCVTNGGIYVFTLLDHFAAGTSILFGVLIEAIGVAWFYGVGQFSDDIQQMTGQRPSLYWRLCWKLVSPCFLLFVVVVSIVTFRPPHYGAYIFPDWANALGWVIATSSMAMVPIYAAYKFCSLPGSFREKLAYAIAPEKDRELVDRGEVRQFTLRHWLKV

With CC(NC(C)(C)C)C(=O)c1ccc(N=[N+]=[N-])c(I)c1 (racemic) the Ki [1] was 3.07 µM, the Activity [2] was “Active” and the Activity [3] was “inactive”. For the same compound, the Activity [4] was “inactive”, the Activity [5] was “inactive” and the Activity [6] was “inactive”.
